Results: US20240115705A1, “Regulation of Butyrophilin subfamily 3 member A1 (BTN3A1, CD277)” (The J. Gladstone Institutes, a testamentary trust …, priority 2021, published 2024)
Blank lines part the entries; values can stand above or below the compound they belong to.

Assays:
BTN2A1 transcripts = test: RT-qPCR of drug-treated Daudi-Cas9 cells, BTN2A1; assay type: cell-based, human; conditions: 80 PM, 72 hours, normalized to ACTB and DMSO
Experimental: (§1) For measurement on Daudi-Cas9 KOs, samples were collected at 13 days after lentiviral transduction. For measurements on drug-treated WT Daudi-Cas9 cells, 180 μL of Daudi-Cas9 cells were seeded in a round-bottom 96-well plate at 275,000 cells/mL. All surrounding wells were filled with 200 μL of sterile PBS or water. With four replicates per treatment, cells were treated with 20 μL of AICAR (final concentration 0.5 mM), Compound 991 (final concentration 80 PM), DMSO, or water. The cells were collected for RT-qPCR measurements after 72 hours of incubation. RNA was extracted from approximately 70,000 cells per sample using the Quick-RNA 96 Kit (Zymo Research) or Direct-zol RNA Microprep Kit (Zymo) according to the manufacturer's protocol without the optional on-column DNase I treatment. According to the manufacturer's protocol, 1 μL of RNA was immediately processed using the Maxima First Strand cDNA Synthesis Kit for RT-qPCR with the dsDNase treatment (Thermo Fisher). Two cDNA synthesis reactions, in addition to a reverse transcriptase minus (RT−) negative control reaction, were performed for each biological replicate. […] Ct values across the three technical replicates for each sample were assessed for significant outliers resulting from technical failures (any samples in triplicate with a standard deviation above 0.2 were assessed) and subsequently averaged. […]

BTN3A1 transcripts = test: RT-qPCR of drug-treated Daudi-Cas9 cells, BTN3A1; assay type: cell-based, human; conditions: 80 PM, 72 hours, normalized to ACTB and DMSO
Experimental: as §1

BTN3A = test: Inhibitor dose response, surface BTN3A by flow cytometry in WT Daudi-Cas9 cells; assay type: cell-based, human; conditions: 72 hours, complete RPMI, vs vehicle
Experimental: Daudi-Cas9 cells (180 μL) were seeded at 275,000 cells/mL in cRPMI in round-bottom 96-well plates. Twenty μL of zoledronate, rotenone (MedChemExpress), oligomycin A (Neta Scientific), FCCP (MedChemExpress), antimycin A (Neta Scientific), AICAR (Sigma), 2-DG (Sigma), Compound 991 (Selleck Chemical), A-769662 (Sigma), ethanol (vehicle), or DMSO (vehicle, at dilutions matching the treatment) at various concentrations were added to the cells. Plate edge wells were filled with 200 μL of sterile water or PBS. The cells were grown at 37° C. for 72 hours, and stained with APC-conjugated anti-human CD277 antibody (clone BT3.1, 1:50 dilution)(Miltenyi Biotec) and 7-AAD (1:150 dilution) (Tonbo). The cells were then analyzed on the Attune NxT flow cytometer.

Daudi-Cas9 cells = test: γδ TCR tetramer staining (G115 Vγ9Vδ2 TCR clone) of Daudi-Cas9 cells; assay type: cell-based, human; conditions: WT Daudi-Cas9 cells, 80 μM, 72 hours
From the text: The G115 Vγ9Vδ2 TCR clone tetramer was generated using the following methods. The G115 γ-[…] chain sequence (Davodeau et al. J. Immunol. 151, 1214-1223 (1993)) was cloned into the pAcGP67A vector with a C-terminal acidic zipper, and the G115 δ-chain sequence (Davodeau et al. (1993)) as cloned into the pAcGP67A vector with a C-terminal AviTag followed by a basic zipper. Zippers stabilized the TCR complex. The TCR was expressed in the High Five baculovirus insect-cell expression system and purified via affinity chromatography over a Ni-NTA column. TCRs were biotinylated and biotinylation was confirmed using a TrapAvidin SDS-PAGE assay. The G115 TCR was then further purified using size-exclusion chromatography (Superdex200 100/300 GL column, GE Healthcare) and purity was confirmed via SDS-PAGE. Tetramers were generated by incubating biotinylated TCR with streptavidin conjugated to the PE fluorophore.
Daudi-Cas9 KO cells were analyzed 13 and 14 days post-lentiviral transduction. WT Daudi-Cas9 cells were analyzed after being cultured for 72 hours with 0.5 mM AICAR, 80 μM Compound 991, DMSO (vehicle control at the concentration matching Compound 991), or nothing. […] Stained cells were analyzed on the Attune NxT flow cytometer.

BTN3A2 transcripts = test: RT-qPCR of drug-treated Daudi-Cas9 cells, BTN3A2; assay type: cell-based, human; conditions: 80 PM, 72 hours, normalized to ACTB and DMSO
Experimental: as §1

BTN3A1 = test: BTN3A expression genome-wide CRISPR knockout screen (FACS sort of surface BTN3A high/low cells); assay type: cell-based, human
[1] = target: BTN2A1-BTN3A1-BTN3A2 cell surface complex on Daudi-Cas9 cells (human; Homo sapiens) (UniProt Q7KYR7); test: flow cytometry, PE-TCR tetramer (160 nM) staining of WT Daudi-Cas9 cells treated 72 h with 0.5 mM AICAR against untreated cells
[2] = target: BTN2A1-BTN3A1-BTN3A2 cell surface complex on Daudi-Cas9 cells (human; Homo sapiens) (UniProt Q7KYR7); test: flow cytometry, PE-TCR tetramer (160 nM) staining of WT Daudi-Cas9 cells treated 72 h with 80 µM Compound 991 against DMSO

UniProt Q7KYR7, sequence (Q7KYR7 29-527, chain 1 of 3): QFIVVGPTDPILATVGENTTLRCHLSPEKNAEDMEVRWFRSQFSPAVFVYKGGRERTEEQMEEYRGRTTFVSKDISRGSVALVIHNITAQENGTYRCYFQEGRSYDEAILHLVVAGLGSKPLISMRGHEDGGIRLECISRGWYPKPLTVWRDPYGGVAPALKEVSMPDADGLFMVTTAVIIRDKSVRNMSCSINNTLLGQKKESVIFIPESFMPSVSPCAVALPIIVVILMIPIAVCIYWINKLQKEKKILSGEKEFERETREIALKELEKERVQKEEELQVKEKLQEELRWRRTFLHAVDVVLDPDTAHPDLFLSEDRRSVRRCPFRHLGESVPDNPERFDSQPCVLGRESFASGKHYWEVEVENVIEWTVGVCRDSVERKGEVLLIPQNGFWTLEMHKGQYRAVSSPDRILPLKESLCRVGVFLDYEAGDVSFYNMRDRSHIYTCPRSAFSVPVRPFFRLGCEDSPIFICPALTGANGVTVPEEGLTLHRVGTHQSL
UniProt Q7KYR7, sequence (chain, as listed by the source, chain 2 of 3): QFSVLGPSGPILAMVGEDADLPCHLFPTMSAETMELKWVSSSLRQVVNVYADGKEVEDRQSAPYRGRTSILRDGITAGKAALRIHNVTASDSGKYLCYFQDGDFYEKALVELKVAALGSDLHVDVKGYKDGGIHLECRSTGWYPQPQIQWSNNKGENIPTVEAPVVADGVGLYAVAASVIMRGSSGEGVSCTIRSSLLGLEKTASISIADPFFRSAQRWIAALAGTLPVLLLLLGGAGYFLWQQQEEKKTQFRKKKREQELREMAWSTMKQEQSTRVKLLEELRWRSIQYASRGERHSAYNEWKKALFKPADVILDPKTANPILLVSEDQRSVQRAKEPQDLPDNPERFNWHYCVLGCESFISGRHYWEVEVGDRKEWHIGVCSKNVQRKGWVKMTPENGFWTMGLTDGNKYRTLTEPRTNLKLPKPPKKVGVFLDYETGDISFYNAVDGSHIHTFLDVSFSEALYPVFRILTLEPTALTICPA
UniProt Q7KYR7, sequence (chain, as listed by the source, chain 3 of 3): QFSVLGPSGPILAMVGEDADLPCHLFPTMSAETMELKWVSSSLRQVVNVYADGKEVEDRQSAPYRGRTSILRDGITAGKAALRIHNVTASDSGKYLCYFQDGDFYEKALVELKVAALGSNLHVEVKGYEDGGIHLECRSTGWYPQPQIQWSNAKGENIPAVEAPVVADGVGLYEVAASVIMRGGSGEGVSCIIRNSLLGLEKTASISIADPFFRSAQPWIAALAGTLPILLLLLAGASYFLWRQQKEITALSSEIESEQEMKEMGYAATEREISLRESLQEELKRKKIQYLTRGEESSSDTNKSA

Compound: Cc1ccc(Oc2nc3cc(-c4ccc5c(ccn5C)c4)c(Cl)cc3[nH]2)cc1C(=O)O [Compound 991]
BTN2A1 transcript level by qPCR (BTN2A1 transcripts): transcriptionally upregulated
BTN3A1 transcript level by qPCR (BTN3A1 transcripts): transcriptionally upregulated
surface BTN3A (MFI) (BTN3A): Upregulation of surface BTN3A
staining with G115 Vγ9Vδ2 TCR tetramer compared to vehicle control-treated cells (Daudi-Cas9 cells): about five times higher
BTN3A2 transcript level by qPCR (BTN3A2 transcripts): transcriptionally upregulated

Compound: COQ2
Log2 Fold Change (BTN3A1; Table 2, positive regulators of BTN3A1, gene knockout in Daudi-Cas9 cells, FACS sort on surface BTN3A1 (anti-BTN3A1 clone BT3.1), three replicates): 1.1343

percent increase of tetramer staining [1]: 40 to 80%
fold tetramer staining against vehicle control-treated cells [2]: 5 fold
Compound: PE-conjugated Vγ9Vδ2 TCR (clone G115) tetramer (from UniProt P22629 37-163)

Compound: RPIA
Log2 Fold Change (BTN3A1; gene knockout in Daudi cells expressing Cas9, genome wide CRISPR knockout screen sorted on surface BTN3A1, Table 1 Negative Regulators of BTN3A1): −1.4533
